How the values were obtained:
B16 melanoma cells = assay: Intracellular uptake of gadolinium complexes (ICP-MS); format: cell-based, mouse; conditions: 24-h incubation; for intracellular uptake of gadolinium complex: B16 melanoma cells, 10 μM
Procedure: Cell culture. B16 melanoma cells (mouse) and MH3924A Morris hepatoma cells (rat) were obtained from the German Cancer Research Center (DKFZ) tumor bank and grown at 37° C. as stock cultures in RPMI 1640 supplemented with 10% fetal calf serum and 1% glutamine as standard medium under a 5% CO2 atmosphere (all components: Pan Biotech GmbH, Aidenbach, Germany). For contrast agent uptake studies 10^6 cells were inoculated into 25 cm^2 culture flasks (BD Biosciences, Bedford, USA) and grown for 24 h in 10 mL of the standard culture medium. Cells were then incubated for an additional 24 h (1 h for temperature dependence studies) with fresh medium containing 0, 1, 2.5, 5 or 10 μM of the selected gadolinium complex (three replicate flasks for each incubation). Afterwards the medium was removed, cells were trypsinated, washed twice, resuspended in culture medium and counted (typical yields: 3.5-6 million cells). For comparison 2.5×10^5 human melanocytes (Promo Cell, Heidelberg, Germany) were incubated for 24 h with melanocyte growth medium (Promo Cell, Heidelberg, Germany) containing 0, 1, 2.5, 5 or 10 μM of the selected gadolinium complex (two replicate flasks for each incubation). The work up procedure was as described above typically yielding 2.5×10^5 cells. Cultured human hepatocytes (Cytonet GmbH, Weinheim, Germany) embedded in a collagen matrix in a 12 well microtiter plate, with 6×10^5 viable cells per well were incubated for 24 h in hepatocyte growth medium (Cytonet GmbH, Weinheim, Germany) containing the same concentration series of selected gadolinium complexes. Afterwards the medium was removed, cells were separated using collagenase (Roche Diagnostics, Mannheim, Germany). After digestion the cells were washed twice with PBS, resuspended in culture medium and counted (typical yields: 6×10^5 cells per tube). The intracellular gadolinium content was determined by ICP-MS as described below.
(§1) ICP-MS. Samples containing the above mentioned number of harvested cells were digested with 50% concentrated HNO3 (Superselect; Merck, Darmstadt, Germany) under microwave heating with a Mars 5 apparatus (CEM GmbH, Kamp-Lintfort, Germany). To each sample 100 μL of an aqueous solution of rhodium chloride (1 μg/mL) were added so that Rh-103 could be used as an internal quantification standard. Gd-160 measurements were performed with the ICP-MS instrument mentioned above. The gadolinium concentrations were determined using standard curves created prior to cell analyses. For each uptake incubation condition triplicate cell samples were analyzed, and Gd content for each sample was recorded as the mean of two MS determinations.
Intracellular Uptake of Gadolinium Complexes. B16 melanoma and MH3924A hepatoma cells as well as human melanocytes and hepatocytes were incubated for 24 h in the presence of the gadolinium complexes shown in FIG. 1, using concentrations in the range of 1-10 μM. Incubations with the unsubstituted [Gd(DTPA)(H2O)]^2−complex (Magnevist®) served as controls. Following cell harvest and hydrolysis, inductively coupled plasma mass spectrometry (ICP-MS) with direct detection of gadolinium was used to quantitate complex uptake (triplicate cultures for each incubation).
Cell Uptake Studies. A493 (human kidney), B16 melanoma cells (mouse), HeLa (human cervix), MCF-7 (human breats), MH3924A (Morris hepatoma) cells (rat) and 3T3 NIH (mouse fibroblasts) were obtained from the DKFZ tumor cell collection. 3×10^6 cells of each cell type were grown for 24 hours in culture flasks. Afterwards they were incubated for 1 hour in 10 mL culture media containing 0, 10, 50 and 100 μM of Gd-2.2. Gd-3.2 or Gd-4.2. Afterwards the medium was removed, the cells were trypsinated, washed twice, resuspended in culture medium and counted. The gadolinium uptake was determined in triplicate. […] cells were incubated with 0, 1, 2.5, 5 and 10 μM of the Gd-1.2. and Gd-5.2. for 24 h. […]

MH3924A cells = assay: Subcellular distribution; format: cell-based, rat; conditions: 100 μM, 24 h, 37° C.
Procedure: Subcellular distribution. 5×10^6 MH3924A cells were grown in 25 cm^2 culture flasks (BD Biosciences, Bedford, USA) for 24 h in 10 mL of the standard culture medium. Cells were then incubated for an additional 24 h with 100 μM Gd-5.1. Afterwards the medium was removed, cells were trypsinated. Then the organelles were isolated with the Subcellular Proteome Extraction Kit ProteoExtract® (Merck, Darmstadt, Germany) according to the instructions of the manufacturer. Four fractions were obtained: Cytosol, membrane organelles (mainly mitochondria), nucleus and cytoskeleton (with associated endosomes and lysosomes). The gadolinium content for each fraction was determined by ICP-MS as described below.
as §1

human melanocytes = assay: Intracellular uptake of gadolinium complexes (ICP-MS); format: cell-based; conditions: 24-h incubation (FIG. 2C)
Procedure: Cell culture. B16 melanoma cells (mouse) and MH3924A Morris hepatoma cells (rat) were obtained from the German Cancer Research Center (DKFZ) tumor bank and grown at 37° C. as stock cultures in RPMI 1640 supplemented with 10% fetal calf serum and 1% glutamine as standard medium under a 5% CO2 atmosphere (all components: Pan Biotech GmbH, Aidenbach, Germany). For contrast agent uptake studies 10^6 cells were inoculated into 25 cm^2 culture flasks (BD Biosciences, Bedford, USA) and grown for 24 h in 10 mL of the standard culture medium. […] Afterwards the medium was removed, cells were trypsinated, washed twice, resuspended in culture medium and counted (typical yields: 3.5-6 million cells). […] After digestion the cells were washed twice with PBS, resuspended in culture medium and counted (typical yields: 6×10^5 cells per tube). The intracellular gadolinium content was determined by ICP-MS as described below.
ICP-MS. […] To each sample 100 μL of an aqueous solution of rhodium chloride (1 μg/mL) were added so that Rh-103 could be used as an internal quantification standard. […] The gadolinium concentrations were determined using standard curves created prior to cell analyses. For each uptake incubation condition triplicate cell samples were analyzed, and Gd content for each sample was recorded as the mean of two MS determinations.

Structure (SMILES) | fold increase in intracellular accumulation versus complex of ligand 2.1 (B16 melanoma cells; cell line not stated) | intracellular uptake of gadolinium complex (B16 melanoma cells) [fmol/cell] | subcellular concentration, cytoplasma (MH3924A cells) [fmol/cell] | subcellular concentration, cytoskeleton fraction (MH3924A cells) [fmol/cell] | subcellular concentration, nucleus (MH3924A cells) [fmol/cell] | factor of higher uptake into B16 melanoma versus human melanocytes (human melanocytes)
CCN(CC)CCNC(=O)CN(CCN(CCN(CC(=O)[O-])CC(=O)N(CCN)CCN)CC(=O)[O-])CC(=O)[O-].[Gd+3] [Gd-3.1] | 2.87 | 0.082±0.004 |  |  |  | 
NCCN(CCN)C(=O)CN(CCN(CCN(CC(=O)[O-])CC(=O)N(CCN)CCN)CC(=O)[O-])CC(=O)[O-].[Gd+3] [Gd-5.1] |  | 0.027±0.002 | 0.026 | 0.065 | 0.015 | 
NCCCCN(CCCN)C(=O)CN(CCN(CCN(CC(=O)[O-])CC(=O)N(CCCN)CCCCN)CC(=O)[O-])CC(=O)[O-].[Gd+3] [Gd-6.1] |  |  |  |  |  | ~2

Reference: patent US20070202047A1, “Polyamine-substituted ligands for use as contrast agents” (priority 2006, published 2007)
